Data taken from patent US20240417428A1, “POLYPEPTIDE FOR INHIBITING TRPM8 AND USE THEREOF” (ZHEJIANG UNIVERSITY, priority 2021, published 2024).
Where a SMILES comes first, the peptide text is derived from it.

Key:
[1] = system: CCI-induced cold allodynia; test: Chronic constriction injury (CCI) model of neuropathic pain: cold allodynia; assay type: in vivo; conditions: CCI rats
Text: Male Sprague-Dawley rats (purchased from Shanghai SLAC Laboratory Animal Co., Ltd. at the beginning of the experiment for 7 weeks, n=7-10/treatment) were used. CCI status was formed according to the method of Bennett G J and Xie Y K (Pain 1988, 33:87-107). Rats were anesthetized by intraperitoneal injection of sodium pentobarbital. The left common sciatic nerve was made to be exposed in the middle of the thigh in a state deprived of adherent tissue, and 4-0 silk thread (Ethicon Inc.) was utilized around it and four passes were loosely ligated at approximately 1-mm intervals. Sham surgery was performed in the same manner except for sciatic nerve ligation. After 1-2 weeks after CCI surgery, as documented in Tanimoto-Mori Setal. (BehavPharmacol., 19:85-90, 2008), The cold allodynia was evaluated by using a cooling plate (LHP-1700CP, TECA) with a temperature controller (Mode 13300-0, CAL Controls Inc.). The animals were acclimatized to a device consisting of a transparent acrylic box (10×12×12 cm) on a stainless steel plate (15×33 cm). The surface of the cooling plate was maintained at 10° C., and the temperature of the plate was continuously monitored with an accuracy of 0.1° C. To perform the experiment, rats were loaded on the cooling plate and the polypeptide DeC-1.2 was administered before and after a cutoff value of 120 seconds, and the paw withdrawal latency (PWL) was measured. […]

TRPM8 = TRPM8 (Mus musculus, UniProt Q8R4D5); test: Inside-out single-channel recording of menthol-activated TRPM8 at +80 mV; assay type: cell-based; set-up: expressed in transfected cells; host or cells: HEK293T
Description: HEK293T cells were cultured in Dulbecco's modified Eagle culture medium under a 37° C., 5% CO2 environment, 10% fetal bovine serum, penicillin (100 U/mL), and streptomycin ([…]) was needed to add into the culture medium. Transient transfection was conducted by using Lipo 2000 (Invitrogen) transfection kit and following the instruction manual.
Electrophysiological experiment recordings were performed on the cells within 24˜48 h of transient transfections. Specifically, single channel electrophysiological recordings were performed within 8 h after transfection.
Measurement of the cell currents was respectively performed in the whole-cell recording mode, inside-out recording mode or outside-out recording mode with a HEKA EPC10 amplifier. In the whole cell electrophysiological recordings, glass microelectrodes made of borosilicate material were fire-polished to a original electrode resistance of about 3-6 MΩ. Serial resistance was compensated by 60%. The whole cell electrophysiological recordings were performed at ±80 mV. For single channel electrophysiological recordings, glass microelectrodes were fire-polished to a higher resistance of 6-8 MΩ2. Current signal was sampled at 10 kHz and filtered at 2.9 kHz. Membrane potential of the cell membrane would be clamped at +80 mV. All electrophysiological recordings were performed at room temperature (22° C.) (the maximum variation is 1° C.).
There were different bath and pipette solutions prepared for different ion channels current measurement. For ion channels such as TRPM8, TRPV1, TRPV2, TRPV3 and TRPA1, the formula of the bath and pipette solutions was: 130 mM NaCl, 0.2 mM EDTA and 3 mM HEPES, pH=7.2. For the current measurement of TRPM4 ion channel, the formula of the bath solution was: 130 mM NaCl and 3 mM HEPES, pH=7.2, and the formula of the pipette solution was: 500 μM CaCl2), 130 mM NaCl and 3 mM HEPES, pH=7.2. For the current measurement of TRPM2 ion channel, the formula of the bath solution was: 147 mM NaCl, 2 mM KCl, 1 mM MgCl2, 10 mM HEPES, 2 mM CaCl2) 13 mM Glucose, pH=7.4, and the formula of the pipette solution was: 147 mM NaCl, 1 mM MgCl2, 10 mM HEPES, pH=7.4. For the current measurement of Nav1.5, Nav1.7 ion channels, the formula of the bath solution was: 140 mM NaCl, 3 mM KCl, 1 mM MgCl2, 1 mM CaCl2), 10 mM HEPES, pH=7.2 and the formula of the pipette solution was: 140 mM CsF, 1 mM EGTA, 10 mM NaCl, 10 mM MgCl2, 3 mM KCl, pH=7.2. To evoke sodium channel current, the membrane potential was increased from −80 mV to +10 mV.
A rapid solution changer with a gravity-driven perfusion system (RSC-200, BioLogic) was used to rapidly perfuse specific solutions into the cells to be tested. Each solution was delivered through a separate tube so that there is no mixing of solutions. The glass microelectrode with a membrane patch was placed directly below the outlet of the perfusion tube during the electrophysiology recordings.

TRPM8, sequence (Q8R4D5 whole entry): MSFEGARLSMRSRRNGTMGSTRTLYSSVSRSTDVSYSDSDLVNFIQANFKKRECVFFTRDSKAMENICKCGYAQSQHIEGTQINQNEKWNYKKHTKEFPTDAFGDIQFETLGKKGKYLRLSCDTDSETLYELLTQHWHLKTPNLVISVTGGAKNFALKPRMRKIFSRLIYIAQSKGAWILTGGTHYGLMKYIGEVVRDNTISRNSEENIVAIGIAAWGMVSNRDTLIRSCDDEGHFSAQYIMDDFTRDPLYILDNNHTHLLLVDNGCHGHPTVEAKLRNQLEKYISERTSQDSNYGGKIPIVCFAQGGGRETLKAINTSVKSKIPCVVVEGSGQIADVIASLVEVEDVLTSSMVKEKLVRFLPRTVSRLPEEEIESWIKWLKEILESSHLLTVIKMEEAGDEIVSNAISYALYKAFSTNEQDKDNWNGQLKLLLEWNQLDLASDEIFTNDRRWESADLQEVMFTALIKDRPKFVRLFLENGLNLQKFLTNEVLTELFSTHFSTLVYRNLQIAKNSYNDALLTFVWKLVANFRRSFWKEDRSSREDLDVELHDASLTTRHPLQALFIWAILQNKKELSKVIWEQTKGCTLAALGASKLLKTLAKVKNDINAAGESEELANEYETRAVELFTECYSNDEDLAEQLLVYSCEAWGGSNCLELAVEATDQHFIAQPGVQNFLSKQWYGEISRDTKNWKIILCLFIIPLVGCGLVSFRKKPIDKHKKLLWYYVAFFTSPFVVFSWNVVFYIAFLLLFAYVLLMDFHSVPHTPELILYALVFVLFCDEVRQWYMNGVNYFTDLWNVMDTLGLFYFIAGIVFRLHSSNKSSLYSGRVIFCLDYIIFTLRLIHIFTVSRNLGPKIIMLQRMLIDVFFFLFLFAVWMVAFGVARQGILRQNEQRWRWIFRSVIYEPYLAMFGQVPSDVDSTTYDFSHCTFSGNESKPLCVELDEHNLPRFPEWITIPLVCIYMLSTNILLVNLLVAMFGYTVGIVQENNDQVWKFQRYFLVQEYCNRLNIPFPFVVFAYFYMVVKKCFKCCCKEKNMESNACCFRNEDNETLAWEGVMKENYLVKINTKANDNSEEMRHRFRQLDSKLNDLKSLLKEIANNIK

C[C@@H]1NC(=O)[C@H](CCCNC(=N)N)NC(=O)[C@H](CC(=O)O)NC(=O)[C@H](CCCNC(=N)N)NC(=O)[C@H](CCCNC(=N)N)NC(=O)[C@@H](N)CSSC[C@@H](C(=O)O)NC(=O)[C@H](CCCNC(=N)N)NC(=O)[C@H](CCC(N)=O)NC(=O)[C@H](CCCNC(=N)N)NC(=O)[C@H](Cc2ccc(O)cc2)NC(=O)[C@H](Cc2c[nH]cn2)NC(=O)[C@H](CCCNC(=N)N)NC1=O [DeC-1.2, CRRDRARHYRQRC] (HELM PEPTIDE1{C.R.R.D.R.A.R.H.Y.R.Q.R.C}$PEPTIDE1,PEPTIDE1,1:R3-13:R3$$$V2.0; N-terminus and C-terminus assumed)
activity against cold allodynia (paw withdrawal latency, 10° C. cooling plate) [1]: exhibited strong activity
open probability of TRPM8 (TRPM8; DeC-1.2 100 μM with saturated menthol (1 mM), n=5): 18.83±1.92%
change of single-channel conductance of menthol-activated TRPM8 (TRPM8; DeC-1.2 100 μM, menthol 1 mM): decreases significantly
change of open probability of menthol-activated TRPM8 (TRPM8; DeC-1.2 100 μM, menthol 1 mM, P<0.0001): decreases significantly
